# Marks after values point to notes of the source that are not given here.
# Assays:
# Assay type in all cases: in vivo
# [1] = system: corn; test: SDI chemigation field study on grain yield under rainfed conditions, Examples 17-19; conditions: for Yield: optimum nitrogen rate 200 lbs. N/acre
# Description: A chemigation study using Subsurface Drip Irrigation (SDI) was conducted to quantify the impact of treatment effects on grain yield under rainfed conditions. The field study was set up as a randomized complete plot design (split plot) with three replications on silt loam soil. Each plot was 8 rows wide (6.1 meters) by 34 meters long. Soil water status was monitored on an hourly basis every 30 cm up to 1.2 meters throughout the growing season using soil moisture sensors. Corn seed was planted with a precision planter at a depth of 2 inches and rows spaced at 30 inches. The planting population was 30,000 seeds per acre. Testing parameters and harvesting were conducted according to the University of Nebraska experimental procedure (see, e.g.,: Irmak, S, D. Z. Haman, and R. Bastug. Determination of Crop Water Stress Index for irrigation Timing and Yield Estimation of Corn. 2000. Agronomy Journal. 92:1221-1227). Moisture levels, evapotranspiration, and plant health were measured throughout the growing season. All microclimatic variables were measured (air temperature, rainfall, solar and net radiation, relative humidity, rainfall, wind speed and direction) so that the researcher could quantify the range of the microclimatic conditions under which this research was conducted to define the boundaries of experimental conditions.
# No irrigation was applied to rainfed plots. […] Maintenance crop protection products were applied as needed to manage weeds and pests throughout the season for all treatments including the control. Azoxystrobin (Quadris) was applied twice via drip irrigation at a rate of 0.8 fl. oz/1000 linear ft (261 gai/ha) or by foliar application (tractor mounted sprayer) at 14 fl. oz./acre (261 gai/ha) at approximately the V6 & R1 stages of the corn. Moddus (trinexapac-ethyl) was foliar-applied (tractor mounted sprayer) once at a rate of 250 gai/ha at approximately the V7 stage of the corn. Crop yield from each replication was recorded after harvest and adjusted to 15.5% moisture content.
# [2] = system: corn; test: Greenhouse subsurface drip irrigation trial, deficit irrigated, Examples 4-8; conditions: for % Yield Increase by Product over Untr./50% Irr. / Yield: SDI chemigated at V3/V4, 50% irrigated deficit, Azoxystrobin 261, PPZ 126, TXP 250, PBZ 12.5, TMX 70 gai/ha; for Yield compared with the control, in words: water stress regime (50% irrigated), SDI
# Description: (§1) A greenhouse subsurface drip irrigation trial was conducted on corn to evaluate treatment effects on yield in fully irrigated vs. deficit irrigated conditions. In this experiment, standardized growth conditions were applied across all corn treatments including: soil-water availability, soil texture and composition, soil chemical and physical properties, meteorological and environmental parameters, and plant nutrition in a greenhouse. No indication of plant disease or pest damage was observed over the course of the study and no pest management program was necessary. A homogeneous sand-organic matter soil mixture (0.18% organic matter) was used as the growth medium in 55-gal containers. These containers were used as a weighing lysimeter, where daily changes in system weight were used to calculate plant transpiration. Four corn plants were grown in each 55-gal container. Three 55-gal containers (12 plants total) made up each treatment. All irrigation and chemical treatments were applied via sub-surface irrigation. Chemical treatments consisted of: azoxystrobin (Quadris), paclobutrazol (Trimmit), trinexapac-ethyl (Moddus), and propiconazole (Tilt) at maximum labeled rates.
# (§2) Corn plants were grown from seed and transplanted in the 55-gal drums approximately 14 days after planting. Uniform adequate irrigation was applied up to growth stage V3/V4 to ensure plant establishment. Chemical treatment applications were applied at growth stage V3/V4 via sub-surface chemigation. At stage V3/V4, irrigation was decreased to replicate deficit water conditions across all treatments for the remainder of the study period. Irrigation was managed daily to maintain 50% plant-available water. Visual signs of abiotic plant stress were observed approximately 30 days after chemical application. All corn plants were grown to yield and cobs were harvested when kernels were uniformly dry (15% moisture content). Root architecture, specifically relative number of fine roots, was measured at within 2 weeks of harvest using a digital imaging technique. Fine roots are related to water uptake productivity, which is directly tied to the ability of the plant to access soil-water under stress.
# [3] = system: corn; test: Greenhouse sub-surface chemigation, yield and root architecture under deficit water, Examples 20-23; conditions: for Yield (% difference from UTC) / Relative number of fine roots (% difference from UTC): sub-surface chemigation at V3/V4, maximum labeled rates, 50% plant-available water; for Relative number of fine roots (% difference from UTC): within 2 weeks of harvest; for Yield compared with the control, statistical statement: sub-surface chemigation, abiotic stress, P values <0.001 at the 95th percentile confidence interval
# Description: as §1, with “In” for “A greenhouse subsurface drip irrigation trial was conducted on corn to evaluate treatment effects on yield in fully irrigated vs. deficit irrigated conditions. In”
# as §2
# [4] = 250 gai/ha, foliar applied once (V7), 0% irrigated
Structure (SMILES),"% Yield Increase by Product over Untr./0% irr. [1, 4]","Yield [1, 4] [Bu./acre]",% Yield Increase by Product over Untr./50% Irr. [2],Yield [2],"Yield compared with the control, in words [2]",Yield (% difference from UTC) [3],Relative number of fine roots (% difference from UTC) [3],"Yield compared with the control, statistical statement [3]","Yield ([1]; 261 gai/ha, SDI chemigated (V6 & R1), 0% irrigated dryland/rainfed) [Bu./acre]","% Yield Increase by Product over Untr./0% irr. ([1]; 261 gai/ha, SDI chemigated, 0% irrigated dryland/rainfed)","Yield ([1]; 261 gai/ha, foliar applied (V6 & R1), 0% irrigated dryland/rainfed) [Bu./acre]","% Yield Increase by Product over Untr./0% irr. ([1]; 261 gai/ha, foliar applied, 0% irrigated dryland/rainfed)"
"CCOC(=O)C1CC(=O)C(=C(O)C2CC2)C(=O)C1 (stereo not drawn) [TXP, trinexapac-ethyl]",+4% incr over Untr./0% irr.,141.9,+15.6% Incr. over Untr./50% Irr.,2133† Kg/Ha,statistically higher than the control,15.6† %,34.3† %,statistically different from the control,–,–,–,–
"CO/C=C(/C(=O)OC)c1ccccc1Oc1cc(Oc2ccccc2C#N)ncn1 [Azoxystrobin, azoxystrobin]",–,–,+12.5% Incr. over Untr./50% Irr.,2077† Kg/Ha,statistically higher than the control,12.5† %,37.3† %,statistically different from the control,145.4,+7% incr over Untr./0% irr.,151.1,+11% incr over Untr./0% irr.
